# Measured values as given in ChEMBL document CHEMBL1201862, “PubChem BioAssay data set” (2004).
#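 Following 48 hours of exposure in 96-well plates, responses at five concentrations were used to interpolate endpoints linearly. Abbreviation: GI50, concentration required for 50% inhibition of growth.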 Active and inactive are the calls of the source. No stated cut-off is given here; in the data, active = GI50 up to about 1.1 µM and inactive = higher.
# Columns and labels:
# Assay in all cases: growth of human tumour cells (NCI), 48 h
# [1] = test system: T47D
# [2] = test system: DU-145
# [3] = test system: NCI-H23
# [4] = test system: 786-0
# [5] = test system: MDA-MB-231
# [6] = test system: SK-OV-3
# [7] = test system: NCI-H460
# [8] = test system: K562
# [9] = test system: SN12C
# [10] = test system: MDA-N
# [11] = test system: ACHN
# [12] = test system: BT-549
# [13] = test system: Hs-578T
# [14] = test system: UACC-257
# [15] = test system: OVCAR-8
# [16] = test system: SNB-19
# [17] = test system: SR
# [18] = test system: PC-3
# [19] = test system: CAKI-1
Structure (SMILES),GI50 [1],GI50 [2],GI50 [3],GI50 [4],GI50 [5],GI50 [6],GI50 [7],GI50 [8],GI50 [9],GI50 [10],GI50 [11],GI50 [12],GI50 [13],GI50 [14],GI50 [15],GI50 [16],GI50 [17],GI50 [18],GI50 [19]
O=C(Cc1ccccc1)NN1C(=O)/C(=C\c2ccc(O)cc2)S/C1=N\c1ccccc1,41 µM (inactive),> 100 µM (inactive),> 100 µM (inactive),> 100 µM (inactive),> 100 µM (inactive),> 100 µM (inactive),> 100 µM (inactive),> 100 µM (inactive),> 100 µM (inactive),> 100 µM (inactive),> 100 µM (inactive),> 100 µM (inactive),> 100 µM (inactive),> 100 µM (inactive),> 100 µM (inactive),> 100 µM (inactive),,,
C=CCOCC1C2CCC3(OCCO3)C21 (centres undefined),,> 100 µM (inactive),48.5 µM (inactive),> 100 µM (inactive),> 100 µM (inactive),> 100 µM (inactive),> 100 µM (inactive),46.9 µM (inactive),> 100 µM (inactive),> 100 µM (inactive),> 100 µM (inactive),> 100 µM (inactive),,> 100 µM (inactive),> 100 µM (inactive),> 100 µM (inactive),> 100 µM (inactive),> 100 µM (inactive),30.4 µM (inactive)
Cc1[nH]nc(-c2ccon2)c1N=O,25.1 µM (inactive),21.4 µM (inactive),19.3 µM (inactive),20.4 µM (inactive),16.8 µM (inactive),26.3 µM (inactive),36.1 µM (inactive),18.5 µM (inactive),26.7 µM (inactive),,15 µM (inactive),18.6 µM (inactive),26.9 µM (inactive),17.4 µM (inactive),17 µM (inactive),26.9 µM (inactive),10 µM (inactive),25.3 µM (inactive),25.8 µM (inactive)
COc1ccc(/C=N/n2cnc3[nH]c(C)c(Cc4ccccc4)c3c2=N)cc1,30.1 µM (inactive),> 100 µM (inactive),53.1 µM (inactive),> 100 µM (inactive),68.4 µM (inactive),> 100 µM (inactive),81.7 µM (inactive),,92 µM (inactive),> 100 µM (inactive),97.1 µM (inactive),75 µM (inactive),80.9 µM (inactive),> 100 µM (inactive),90.6 µM (inactive),> 100 µM (inactive),> 100 µM (inactive),> 100 µM (inactive),> 100 µM (inactive)
O=P(O)(O)CN1CCN(CP(=O)(O)O)CCN(CP(=O)(O)O)CCN(CP(=O)(O)O)CC1,> 100 µM (inactive),> 100 µM (inactive),55.6 µM (inactive),> 100 µM (inactive),> 100 µM (inactive),,29 µM (inactive),31.8 µM (inactive),> 100 µM (inactive),79.4 µM (inactive),> 100 µM (inactive),35.6 µM (inactive),> 100 µM (inactive),> 100 µM (inactive),77.6 µM (inactive),> 100 µM (inactive),10.5 µM (inactive),87.3 µM (inactive),> 100 µM (inactive)
Cn1cc(C(=O)c2ccccc2)ccc1=O,,,> 100 µM (inactive),> 100 µM (inactive),,> 100 µM (inactive),> 100 µM (inactive),> 100 µM (inactive),> 100 µM (inactive),,> 100 µM (inactive),,,> 100 µM (inactive),> 100 µM (inactive),> 100 µM (inactive),> 100 µM (inactive),,> 100 µM (inactive)
COc1ccc2cc(/C=N\NC(=O)Nc3cccc4ccccc34)ccc2c1,,58.2 µM (inactive),24.3 µM (inactive),12.9 µM (inactive),27 µM (inactive),,17.9 µM (inactive),14.6 µM (inactive),36.6 µM (inactive),42 µM (inactive),23.9 µM (inactive),49.4 µM (inactive),30.5 µM (inactive),32.4 µM (inactive),24 µM (inactive),22 µM (inactive),16.1 µM (inactive),33.7 µM (inactive),23.8 µM (inactive)
CC1(C)C[C@H]2C=C(C=O)[C@]34C[C@]3(C(=O)OC4O)[C@H]2C1 (some centres undefined),0.459 µM (active),2.22 µM (inactive),1.66 µM (inactive),,1.48 µM (inactive),16 µM (inactive),18.1 µM (inactive),4.58 µM (inactive),3.86 µM (inactive),1.37 µM (inactive),1.53 µM (inactive),1.97 µM (inactive),3.21 µM (inactive),2.11 µM (inactive),1.1 µM (active),11.4 µM (inactive),2.56 µM (inactive),2.84 µM (inactive),1.59 µM (inactive)
